{"source": "patent US20210015874A1", "about": "“USE OF BIO-TRANSFORMED BEAR BILE POWDER IN PREPARATION OF ANTI-INFLAMMATORY DRUGS” (SHANGHAI KAIBAO PHARMACEUTICAL CO., LTD., priority 2019, published 2021)", "tested_on": "carrageenan-induced inflammation model", "assay": "plantar swelling of carrageenan-induced inflammation model in rats", "assay_type": "in vivo, SD rats", "settings": "intragastric once, 0.007 g/kg", "protocol": "Animal germline: specific pathogen-free (SPF) male SD rats, aged 6-week-old, weighing between 132 g and 199 g when received, and weighing between 152 g and 225 g when drugs are administered to rats, were purchased from Hunan Slake Jingda laboratory Animal Co., Ltd. The laboratory animal production license: SCXK (Xiang) 2016-0002 (valid until Sep. 29, 2021), issued by China Hunan Provincial Science & Technology Department. The laboratory animal quality certificate No.: 43004700060779.\nMethod for grouping animals: after the quarantine was over, rats that have passed the quarantine inspection were selected for experiments. Groups were randomly assigned on the basis of body weight and divided into 9 groups with 10 rats per group. The 9 groups were as follows: a negative control group, a model group, a group of rats treated with low-dose bio-transformed bear bile powder, a group of rats treated with middle-dose bio-transformed bear bile powder, a group of rats treated with high-dose bio-transformed bear bile powder, a group of rats treated with low-dose natural bear bile powder, a group of rats treated with middle-dose natural bear bile powder, a group of rats treated with high-dose natural bear bile powder, and a positive control group.\nDose and group design for the experiment: a total of 9 groups are contemplated, that is, negative control group (blank control group), a model group, a group of rats treated with low-dose bio-transformed bear bile powder, a group of rats treated with middle-dose bio-transformed bear bile powder, a group of rats treated with high-dose bio-transformed bear bile powder, a group of rats treated with low-dose natural bear bile powder, a group of rats treated with middle-dose natural bear bile powder, a group of rats treated with high-dose natural bear bile powder, and a positive control group (a group of rats treated with indomethacin).\nAdministration route, administration frequency, and administration period of the test substance and the control: each of them was administered intragastrically, the administration volume was 10 mL/kg, and each group was administered once.\nExperimental method: SD male rats that had passed the quarantine inspection were selected for experiments. Groups were divided into 9 groups with 10 male rats per group. The 9 groups were as follows: a negative control group, a model group, a group of rats treated with low-dose bio-transformed bear bile powder, a group of rats treated with middle-dose bio-transformed bear bile powder, a group of rats treated with high-dose bio-transformed bear bile powder, a group of rats treated with low-dose natural bear bile powder, a group of rats treated with middle-dose natural bear bile powder, a group of rats treated with high-dose natural bear bile powder, and a positive control indomethacin group. Before molding, each animal was scored at the ankle joint of the right hind foot, and the volume of the right hind foot was measured with a plantar volume measuring instrument, and it was measured continuously 2 times, wherein the average value obtained from the two measurements was taken as a base volume.\nExcept for the blank control group, the animals in the remaining groups were injected with 1% by weight of carrageenan suspension at the right hind foot metatarsal palmar fascia, the volume for each rat was 0.1 mL; animals in the blank control group were injected with an equal volume of normal saline; corresponding drugs were administered intragastrically immediately after an injection of carrageenan. The plantar volume of the right hind foot of each group of animals was measured at 1 h, 2 h, 3 h, 4 h, 5 h, and 6 h after injection, and was measured twice consecutively, and the average value obtained from the two measurements was taken as the plantar volume after modeling. The plantar swelling and the plantar swelling inhibition rate were calculated according to the plantar volume measured at different time points after inflammation was induced. […]", "data": [{"molecule": "COc1ccc2c(c1)c(CC(=O)O)c(C)n2C(=O)c1ccc(Cl)cc1", "note": "[Positive control, indomethacin]", "values": [{"measurement": "Plantar swelling 1 h", "setting": "1 h after carrageenan", "result": "0.21 ± 0.14", "unit": "mL"}, {"measurement": "Plantar swelling 2 h", "setting": "2 h after carrageenan", "result": "0.25 ± 0.16", "unit": "mL"}, {"measurement": "Plantar swelling 3 h", "setting": "3 h after carrageenan", "result": "0.29 ± 0.15", "unit": "mL"}, {"measurement": "Plantar swelling 4 h", "setting": "4 h after carrageenan", "result": "0.15 ± 0.12", "unit": "mL"}, {"measurement": "Plantar swelling 5 h", "setting": "5 h after carrageenan", "result": "0.19 ± 0.09", "unit": "mL"}, {"measurement": "Plantar swelling 6 h", "setting": "6 h after carrageenan", "result": "0.17 ± 0.10", "unit": "mL"}]}]}
